Each compound was assayed against T1, WT/R232 STING protein (Homo sapiens, UniProt Q86WV6, H232R) (assay: Luciferase reporter assay in HEK293T-hSTING-Luciferase cells, WT/R232). Details: 20 hr stimulation, read-out: R232 Activity (EC50 range).
T1 construct: host or cells: HEK293T
Format: cell-based
How it was run: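 Clonal HEK293T cells stably expressing human STING R232 plus an ISRE/ISG54-driven luciferase reporter, 5×10^5 per well, stimulated with compounds for 20 h. Secreted luciferase in supernatant measured by luminescence; […].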

T1 sequence (Q86WV6 whole entry H232R): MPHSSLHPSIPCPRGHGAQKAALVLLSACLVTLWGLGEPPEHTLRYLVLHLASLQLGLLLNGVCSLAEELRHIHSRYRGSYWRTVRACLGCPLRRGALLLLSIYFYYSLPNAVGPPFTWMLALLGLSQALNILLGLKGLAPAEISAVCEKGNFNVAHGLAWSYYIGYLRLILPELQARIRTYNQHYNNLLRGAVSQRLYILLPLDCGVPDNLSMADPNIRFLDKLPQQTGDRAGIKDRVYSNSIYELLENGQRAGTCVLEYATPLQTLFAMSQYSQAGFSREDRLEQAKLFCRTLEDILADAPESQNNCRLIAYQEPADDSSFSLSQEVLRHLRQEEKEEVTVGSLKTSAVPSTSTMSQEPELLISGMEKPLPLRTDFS

Row | Structure (SMILES) | EC50 [µM]
1 | O=C(NCC12C[C@H]3C[C@@H](C1)C[C@@H](C2)C3)c1ccc2c(c1)N(Cc1ccccc1F)C(=O)CS2 [Example 24, N-((3r,5r,7r)-adamantan-1-ylmethyl)-4-(2-fluorobenzyl)-3-oxo-3,4-dihydro-2H-benzo[b-1,4]thiazine-6-carboxamide] | > 10
2 | O=C(NCc1cccs1)c1ccc2c(c1)N(Cc1c(F)cccc1Cl)C(=O)CS2 [Example 107, 4-(2-chloro-6-fluorobenzyl)-3-oxo-N-(thiophen-2-ylmethyl)-3,4-dihydro-2H-benzo[b-1,4]thiazine-6-carboxamide] | 1 to 10
3 | O=C(NCc1ccco1)c1ccc2c(c1)N(Cc1cccc(OC(F)(F)F)c1)C(=O)CS2 [Example 88, N-(furan-2-ylmethyl)-3-oxo-4-(3-(trifluoromethoxy)benzyl)-3,4-dihydro-2H-benzo[b-1,4]thiazine-6-carboxamide] | > 10
4 | COc1cc(F)c(CN2C(=O)CSc3ccc(C(=O)NCc4c(F)cc(F)cc4F)cc32)c(F)c1 [Example 114, 4-(2,6-difluoro-4-methoxybenzyl)-3-oxo-N-(2,4,6-trifluorobenzyl)-3,4-dihydro-2H-benzo[b][1,4] thiazine-6-carboxamide] | < 1
5 | O=C(NCC1CCCN(Cc2ccccc2)C1)c1ccc2c(c1)N(Cc1ccccc1F)C(=O)CS2 (stereo not shown) [Example 44, N-((1-benzylpiperidin-3-yl)methyl)-4-(2-fluorobenzyl)-3-oxo-3,4-dihydro-2H-benzo[b][1,4] thiazine-6-carboxamide] | > 10
6 | O=C(NCc1ccco1)c1ccc2c(c1)N(Cc1cccnc1)C(=O)CS2 [Example 27, N-(furan-2-ylmethyl)-3-oxo-4-(pyridin-3-ylmethyl)-3,4-dihydro-2H-benzo[b-1,4]thiazine-6-carboxamide] | > 10
7 | Cn1cc(CNC(=O)c2ccc3c(c2)N(Cc2ccccc2)C(=O)CS3)cn1 [Example 121, 4-benzyl-N-((1-methyl-1H-pyrazol-4-yl)methyl)-3-oxo-3,4-dihydro-2H-benzo[b][1,4] thiazine-6-carboxamide] | > 10
8 | Nc1ccc(CNC(=O)c2ccc3c(c2)N(Cc2ccccc2)C(=O)CS3)cn1 [Example 52, N-((6-aminopyridin-3-yl)methyl)-4-benzyl-3-oxo-3,4-dihydro-2H-benzo[b-1,4]thiazine-6-carboxamide] | > 10
9 | Cc1cccc(C)c1CN1C(=O)CSc2ccc(C(=O)NCc3ccco3)cc21 [Example 13, 4-(2,6-dimethyl-benzyl)-N-(furan-2-ylmethyl)-3-oxo-3,4-dihydro-2H-benzo[b-1,4]thiazine-6-carboxamide] | 1 to 10
10 | O=C(NCc1ccco1)c1ccc2c(c1)N(CC(O)c1ccccc1)C(=O)CS2 (stereo not shown) [Example 17, N-(furan-2-ylmethyl)-4-(2-hydroxy-2-phenylethyl)-3-oxo-3,4-dihydro-2H-benzo[b-1,4]thiazine-6-carboxamide] | > 10
11 | CN(C)CC(NC(=O)c1ccc2c(c1)N(Cc1ccccc1)C(=O)CS2)c1ccccc1 (stereo not shown) [Example 53, 4-benzyl-N-(2-(dimethylamino)-1-phenylethyl)-3-oxo-3,4-dihydro-2H-benzo[b-1,4]thiazine-6-carboxamide] | > 10

Next, values leading:

Row | EC50 [µM] | Structure (SMILES)
12 | > 10 | O=C(NCC1CCCO1)c1ccc2c(c1)N(Cc1c(F)cccc1Cl)C(=O)CS2 (stereo not shown) [Example 130, 4-(2-chloro-6-fluorobenzyl)-3-oxo-N-((tetrahydrofuran-2-yl)methyl)-3,4-dihydro-2H-benzo[b-1,4]thiazine-6-carboxamide]
13 | > 10 | O=C(NCc1ccco1)c1ccc2c(c1)N(C(=O)c1c(F)cccc1Cl)CCO2 [Example 265, 4-(2-chloro-6-fluorobenzoyl)-N-(furan-2-ylmethyl)-3,4-dihydro-2H-benzo[b-1,4]oxazine-6-carboxamide]
14 | 1 to 10 | O=C(NCc1ccc(F)cc1F)c1cnc2c(c1)N(Cc1cc(F)cc(F)c1)C(=O)CC2 [Example 277, N-(2,4-difluorobenzyl)-5-(3,5-difluorobenzyl)-6-oxo-5,6,7,8-tetrahydro-1,5-naphthyridine-3-carboxamide]
15 | 1 to 10 | N#CCC1Sc2ccc(C(=O)NCc3ccc(F)cc3F)cc2N(Cc2cc(F)cc(F)c2)C1=O (stereo not shown) [Example 162, 2-(cyanomethyl)-N-(2,4-difluorobenzyl)-4-(3,5-difluorobenzyl)-3-oxo-3,4-dihydro-2H-benzo[b][1,4] thiazine-6-carboxamide]
16 | > 10 | O=C(NCc1ccco1)c1cc2c(cc1Br)SCC(=O)N2Cc1ccccc1F [Example 228, 7-bromo-4-(2-fluorobenzyl)-N-(furan-2-ylmethyl)-3-oxo-3,4-dihydro-2H-benzo[b][1,4]thiazine-6-carboxamide]
17 | > 10 | O=C(NCc1cc2ccccc2o1)c1cnc2c(c1)N(Cc1cc(F)cc(F)c1)C(=O)CC2 [Example 278, N-(benzofuran-2-ylmethyl)-5-(3,5-difluorobenzyl)-6-oxo-5,6,7,8-tetrahydro-1,5-naphthyridine-3-carboxamide]
18 | > 10 | CC1(CC(=O)O)Sc2ccc(C(=O)NCc3ccco3)cc2N(Cc2ccccc2F)C1=O (stereo not shown) [Example 139, 2-(4-(2-fluorobenzyl)-6-((furan-2-ylmethyl)carbamoyl)-2-methyl-3-oxo-3,4-dihydro-2H-benzo[b-1,4]thiazin-2-yl)acetic acid]
19 | 1 to 10 | C[C@@H]1Oc2ncc(C(=O)NCc3cc4ccccc4o3)cc2N(Cc2cc(F)cc(F)c2)C1=O [Example 241, (S)-N-(benzofuran-2-ylmethyl)-1-(3,5-difluorobenzyl)-3-methyl-2-oxo-2,3-dihydro-1H-pyrido[2,3-b][1,4]oxazine-7-carboxamide]
20 | > 10 | CCOC1Sc2ccc(C(=O)NCc3ccco3)cc2N(Cc2ccccc2F)C1=O (stereo not shown) [Example 137, 2-ethoxy-4-(2-fluorobenzyl)-N-(furan-2-ylmethyl)-3-oxo-3,4-dihydro-2H-benzo[b-1,4]thiazine-6-carboxamide]
21 | 1 to 10 | CC1Sc2ccc(C(=O)NCc3c(F)cc(F)cc3F)nc2N(Cc2cc(F)cc(F)c2)C1=O (stereo not shown) [Example 185, 4-(3,5-difluorobenzyl)-2-methyl-3-oxo-N-(2,4,6-trifluorobenzyl)-3,4-dihydro-2H-pyrido[3,2-b-1,4]thiazine-6-carboxamide]
22 | > 10 | O=C(CN1CCSc2ccc(C(=O)NCc3ccco3)cc21)c1ccccc1 [Example 249, N-(furan-2-ylmethyl)-4-(2-oxo-2-phenylethyl)-3,4-dihydro-2H-benzo[b][1,4]thiazine-6-carboxamide]
23 | > 10 | O=C(NCc1ccco1)c1ccc2c(c1)N(Cc1ccccc1)C(=S)CS2 [Example 266, 4-Benzyl-N-(furan-2-ylmethyl)-3-thioxo-3,4-dihydro-2H-benzo[b-1,4]thiazine-6-carboxamide]
24 | > 10 | CC1(C)Sc2ccc(C(=O)NCc3ccco3)cc2N(Cc2ccccc2)C1=O [Example 132, 4-Benzyl-N-(furan-2-ylmethyl)-2,2-dimethyl-3-oxo-3,4-dihydro-2H-benzo[b-1,4]thiazine-6-carboxamide]
25 | > 10 | NC(=O)CC1Sc2ccc(C(=O)NCc3ccc(F)cc3F)cc2N(Cc2cc(F)cc(F)c2)C1=O (stereo not shown) [Example 176, 2-(2-amino-2-oxoethyl)-N-(2,4-difluorobenzyl)-4-(3,5-difluorobenzyl)-3-oxo-3,4-dihydro-2H-benzo[b] [1,4]thiazine-6-carboxamide]

From patent US20200138827A1, “SMALL MOLECULE MODULATORS OF HUMAN STING” (Curadev Pharma Limited, priority 2017, published 2020)
